Laboratory results: the supplement of paper PMC11061612

Tests used:
Assay in all cases: Bliss excess, mean over the matrix (fraction); higher = more synergy
[1] = system: Calu-3 (Lung Adenocarcinoma)
How it was run: (§1)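 Cell lines grown in DMEM/F12 or RPMI with 10% FBS were plated in 1536-well plates and held 24 hours at 37°C, 5% CO2 before 72 hours of exposure to two-drug dose matrices, with DMSO typically at 0.2%. CellTiter-Glo 2.0 luminescence gave viability, which was converted to inhibition. Vehicle wells were set to 0 and blank wells to 1. Combination Emax is the second-highest inhibition in the matrix, and Bliss excess is the observed combination effect minus the expected EA + EB − EA·EB, where EA and EB are the single-agent effects.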

[2] = system: LS-180 (Colorectal Carcinoma)
How it was run: as §1

[3] = system: ME-1 (Acute Myeloid Leukemia)
How it was run: as §1

[4] = system: RO82-W-1 (Thyroid Gland Carcinoma)
How it was run: as §1

T98G (Glioblastoma) = system: T98G (Glioblastoma)
How it was run: as §1

[5] = system: TE-15 (Esophageal Squamous Cell Carcinoma)
How it was run: as §1

[6] = system: TE-9 (Esophageal Squamous Cell Carcinoma)
How it was run: as §1

[7] = system: UM-UC-3 (Bladder Carcinoma)
How it was run: as §1

Row | SMILES | Bliss excess [1] | Bliss excess [2] | Bliss excess [3] | Bliss excess [4] | Bliss excess (T98G (Glioblastoma)) | Bliss excess [5] | Bliss excess [6] | Bliss excess [7]
1 | C=CCn1c(=O)c2cnc(Nc3ccc(N4CCN(C)CC4)cc3)nc2n1-c1cccc(C(C)(C)O)n1 [AZD1775] + CCc1c2c(nc3ccc(O)cc13)-c1cc3c(c(=O)n1C2)COC(=O)[C@]3(O)CC [SN-38] (first compound max 1 µM, partner max 0.3 µM) | -0.0341 | -0.115 | -0.0047 | -0.0352 | 0.0057 | -0.0211 | -0.0022 | -0.0431
2 | C=CCn1c(=O)c2cnc(Nc3ccc(N4CCN(C)CC4)cc3)nc2n1-c1cccc(C(C)(C)O)n1 [AZD1775] + Nc1ccn([C@@H]2O[C@H](CO)[C@@H](O)C2(F)F)c(=O)n1 [Gemcitabine] (first compound max 1 µM, partner max 0.3 µM) | -0.013 | -0.0906 | -0.0044 | -0.0271 | 0.0257 | 0.042 | -0.0253 | 0.0758
3 | CN(CCO)CC[C@H](CSc1ccccc1)Nc1ccc(S(=O)(=O)NC(=O)c2ccc(N3CCC([C@@H](O)c4ccccc4-c4ccc(Cl)cc4)CC3)cc2)cc1S(=O)(=O)C(F)(F)F [AZD4320] + CC(=O)O[C@H]1C(=O)[C@@]2(C)[C@H]([C@H](OC(=O)c3ccccc3)[C@]3(O)C[C@H](OC(=O)[C@H](O)[C@@H](NC(=O)c4ccccc4)c4ccccc4)C(C)=C1C3(C)C)[C@]1(OC(C)=O)CO[C@@H]1C[C@@H]2O [Paclitaxel] (first compound max 1 µM, 7x7, partner max 3 µM) | -0.0045 | -0.0382 | 0.0994 | 0.332 | 0.0613 | 0.0118 | 0.0929 | 0.192
4 | CN(CCO)CC[C@H](CSc1ccccc1)Nc1ccc(S(=O)(=O)NC(=O)c2ccc(N3CCC([C@@H](O)c4ccccc4-c4ccc(Cl)cc4)CC3)cc2)cc1S(=O)(=O)C(F)(F)F [AZD4320] + CS(=O)(=O)CCNCc1ccc(-c2ccc3ncnc(Nc4ccc(OCc5cccc(F)c5)c(Cl)c4)c3c2)o1 [Lapatinib] (first compound max 1 µM, 7x7, partner max 10 µM) | 0.0224 | -0.0521 | 0.0937 | 0.0002 | 0.0029 | -0.0004 | 0.0137 | 0.0099
5 | CN(CCO)CC[C@H](CSc1ccccc1)Nc1ccc(S(=O)(=O)NC(=O)c2ccc(N3CCC([C@@H](O)c4ccccc4-c4ccc(Cl)cc4)CC3)cc2)cc1S(=O)(=O)C(F)(F)F [AZD4320] + Nc1ccn([C@@H]2O[C@H](CO)[C@@H](O)C2(F)F)c(=O)n1 [Gemcitabine] (first compound max 1 µM, 7x7, partner max 0.3 µM) | 0.0076 | -0.0907 | 0.0049 | -0.0237 | -0.0265 | 0.0164 | 0.0151 | -0.0229
6 | Cc1c2c(nn1C)CSCc1cc(n(C)n1)CSc1cc(c3ccccc3c1)OCCCc1c(C(=O)O)n(C)c3c-2c(Cl)ccc13 [AZD5991] + CC(=O)O[C@H]1C(=O)[C@@]2(C)[C@H]([C@H](OC(=O)c3ccccc3)[C@]3(O)C[C@H](OC(=O)[C@H](O)[C@@H](NC(=O)c4ccccc4)c4ccccc4)C(C)=C1C3(C)C)[C@]1(OC(C)=O)CO[C@@H]1C[C@@H]2O [Paclitaxel] (first compound max 1 µM, 7x7, partner max 3 µM) | -0.0064 | -0.033 | -0.0368 | -0.023 | -0.0798 | 0.0224 | 0.0317 | -0.0693
7 | Cc1c2c(nn1C)CSCc1cc(n(C)n1)CSc1cc(c3ccccc3c1)OCCCc1c(C(=O)O)n(C)c3c-2c(Cl)ccc13 [AZD5991] + CS(=O)(=O)CCNCc1ccc(-c2ccc3ncnc(Nc4ccc(OCc5cccc(F)c5)c(Cl)c4)c3c2)o1 [Lapatinib] (first compound max 1 µM, 7x7, partner max 10 µM) | 0.0244 | 0.0651 | -0.0089 | -0.0357 | -0.0233 | -0.012 | -0.0218 | -0.001
8 | Cc1c2c(nn1C)CSCc1cc(n(C)n1)CSc1cc(c3ccccc3c1)OCCCc1c(C(=O)O)n(C)c3c-2c(Cl)ccc13 [AZD5991] + Nc1ccn([C@@H]2O[C@H](CO)[C@@H](O)C2(F)F)c(=O)n1 [Gemcitabine] (first compound max 1 µM, 7x7, partner max 0.3 µM) | -0.0191 | -0.061 | -0.0612 | -0.0453 | 0.0127 | 0 | -0.0201 | -0.0402
9 | C[C@@H]1COCCN1c1cc(C2([S@](C)(=N)=O)CC2)nc(-c2ccnc3[nH]ccc23)n1 [AZD6738] + C1CC(C1)(C(=O)[O-])C(=O)[O-].N.N.[Pt+2] [Carboplatin] (first compound max 10 µM, 7x7, partner max 10 µM) | -0.0397 | 0.0068 | -0.0565 | -0.0333 | -0.0401 | -0.0208 | -0.0215 | -0.0213
10 | Cc1cc2ncnn2cc1Nc1ncc2c(n1)n(C1CCOCC1)c(=O)n2C [AZD7648] + COc1cc([C@@H]2c3cc4c(cc3[C@@H](O[C@@H]3O[C@@H]5CO[C@@H](C)O[C@H]5[C@H](O)[C@H]3O)[C@H]3COC(=O)[C@H]23)OCO4)cc(OC)c1O [Etoposide] (first compound max 10 µM, 7x7, partner max 10 µM) | 0.1 | 0.0183 | -0.0301 | 0.0049 | 0.12 | 0.0823 | 0.0158 | 0.105
11 | C[C@@H](Nc1cc(F)cc(F)c1)c1cc(C(=O)N(C)C)cc2c(=O)cc(N3CCOCC3)oc12 [AZD8186] + C1CN(CCC1(C(=O)N[C@@H](CCO)C2=CC=C(C=C2)Cl)N)C3=NC=NC4=C3C=CN4 [AZD5363] (first compound max 10 µM, 7x7, partner max 10 µM) | 0.0001 | -0.0425 | -0.052 | -0.0132 | 0.0381 | 0.0126 | -0.0405 | 0.0454
12 | C[C@@H](Nc1cc(F)cc(F)c1)c1cc(C(=O)N(C)C)cc2c(=O)cc(N3CCOCC3)oc12 [AZD8186] + CC(=O)c1c(C)c2cnc(Nc3ccc(N4CCNCC4)cn3)nc2n(C2CCCC2)c1=O [Palbociclib] (first compound max 10 µM, 7x7, partner max 10 µM) | -0.0036 | 0.0004 | 0.0065 | 0.033 | 0.0744 | -0.0044 | -0.0589 | 0.131
13 | C[C@@H](Oc1cc(-c2cnn(C3CCNCC3)c2)cnc1N)c1c(Cl)ccc(F)c1Cl [Crizotinib] + CC1=C(C(=CC=C1)Cl)NC(=O)C2=CN=C(S2)NC3=CC(=NC(=N3)C)N4CCN(CC4)CCO [Dasatinib] (first compound max 10 µM, 7x7, partner max 2 µM) | -0.0158 | -0.0156 | -0.0061 | 0.0517 | 0.0943 | -0.0403 | 0.0657 | 0.0577
14 | C[C@@H](Oc1cc(-c2cnn(C3CCNCC3)c2)cnc1N)c1c(Cl)ccc(F)c1Cl [Crizotinib] + Cn1cnc2c(F)c(Nc3ccc(Br)cc3Cl)c(C(=O)NOCCO)cc21 [Selumetinib] (first compound max 10 µM, 7x7, partner max 10 µM) | -0.0507 | -0.0236 | 0.0624 | -0.0227 | -0.0578 | -0.021 | -0.0199 | -0.0136
15 | CS(=O)(=O)CCNCc1ccc(-c2ccc3ncnc(Nc4ccc(OCc5cccc(F)c5)c(Cl)c4)c3c2)o1 [Lapatinib] + Cn1cnc2c(F)c(Nc3ccc(Br)cc3Cl)c(C(=O)NOCCO)cc21 [Selumetinib] (first compound max 10 µM, 7x7, partner max 10 µM) | -0.009 | 0.0947 | 0.0694 | -0.0093 | 0.0075 | -0.0388 | -0.0341 | 0.0547
16 | O=C(c1cc(Cc2n[nH]c(=O)c3ccccc23)ccc1F)N1CCN(C(=O)C2CC2)CC1 [Olaparib] + CC1(C)CCC(CN2CCN(c3ccc(C(=O)NS(=O)(=O)c4ccc(NCC5CCOCC5)c([N+](=O)[O-])c4)c(Oc4cnc5[nH]ccc5c4)c3)CC2)=C(c2ccc(Cl)cc2)C1 [Venetoclax] (first compound max 10 µM, 7x7, partner max 1 µM) | -0.0406 | -0.0431 | 0.0436 | -0.0277 | -0.0269 | -0.0098 | -0.045 | -0.0528
17 | O=C(c1cc(Cc2n[nH]c(=O)c3ccccc23)ccc1F)N1CCN(C(=O)C2CC2)CC1 [Olaparib] + CN(CC[C@H](CSC1=CC=CC=C1)NC2=C(C=C(C=C2)S(=O)(=O)NC(=O)C3=CC=C(C=C3)N4CCC(CC4)[C@H](C5=CC=CC=C5C6=CC=C(C=C6)Cl)O)S(=O)(=O)C(F)(F)F)CCO [AZD4320] (first compound max 10 µM, 7x7, partner max 1 µM) | -0.027 | -0.0552 | -0.0216 | 0.0031 | 0.0008 | -0.0494 | -0.003 | 0.0086
18 | O=C(c1cc(Cc2n[nH]c(=O)c3ccccc23)ccc1F)N1CCN(C(=O)C2CC2)CC1 [Olaparib] + COc1nnc2ccc(N3CCC(c4ccc(OCCN5CCN(C)C(=O)[C@H]5C)cc4)CC3)nn12 [AZD5153] (first compound max 10 µM, 7x7, partner max 1 µM) | -0.0339 | -0.0495 | 0.0123 | -0.0002 | -0.0501 | -0.0671 | -0.0663 | -0.0014
19 | O=C(c1cc(Cc2n[nH]c(=O)c3ccccc23)ccc1F)N1CCN(C(=O)C2CC2)CC1 [Olaparib] + Cc1c2c(nn1C)CSCc1cc(n(C)n1)CSc1cc(c3ccccc3c1)OCCCc1c(C(=O)O)n(C)c3c-2c(Cl)ccc13 [AZD5991] (first compound max 10 µM, 7x7, partner max 1 µM) | -0.0453 | -0.0207 | -0.0085 | -0.0375 | -0.0277 | -0.0392 | -0.0397 | -0.0182
20 | N#Cc1cnc(Nc2cc(NC[C@H]3CNCCO3)c(C(F)(F)F)cn2)cn1 [SRA737] + C=CCn1c(=O)c2cnc(Nc3ccc(N4CCN(C)CC4)cc3)nc2n1-c1cccc(C(C)(C)O)n1 [AZD1775] (first compound max 10 µM, partner max 1 µM) | 0.0228 | 0.0475 | 0.0456 | -0.0441 | 0.0169 | 0.0209 | 0.0457 | 0.0749
21 | N#Cc1cnc(Nc2cc(NC[C@H]3CNCCO3)c(C(F)(F)F)cn2)cn1 [SRA737] + CCc1c2c(nc3ccc(O)cc13)-c1cc3c(c(=O)n1C2)COC(=O)[C@]3(O)CC [SN-38] (first compound max 10 µM, 7x7, partner max 0.3 µM) | -0.0477 | – | 0.0352 | -0.04 | 0.0065 | -0.0928 | -0.0181 | -0.0017
